Measured values from US9023821B2, “Use of MicroRNA for treating diseases associated with a dysfunction of the cilia in multiciliated epithelial cells” (Centre National de la Recherche Scientifique, priority 2009, dated 2015).

Columns and labels:
[1] = test system: basal cells and pyramidal cells of the airway epithelium; experiment: miRNA expression in sorted basal cells versus pyramidal cells (ciliated + secretory), HTS and Agilent chips; set-up: species or system human; details: for Modulation of expression of the miRNAs in pyramidal cells (323(−)) relative to basal cells 323(+): HTS and Agilent chips; for Intensity of the level of expression in log2 in pyramidal cells (323(−)): pyramidal cells (ciliated + secretory)
How it was run: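 miRNA repertoires measured by high-throughput sequencing or Agilent arrays on total RNA from sorted airway epithelial populations of 3 donors. Sorting used CD151-PE and anti-tissue factor-FITC: double-positive basal versus double-negative ciliated/secretory cells, with DAPI-stained and aggregated cells excluded.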

[2] = test system: human airway epithelial cells (HAECs); experiment: High-throughput sequencing (HTS) of miRNAs at four stages of differentiation of HAECs; details: for Modulation (ratio of the level of intensity of expression in log2 in two stages of differentiation) measured by high-throughput sequencing, D7 − D0 / Modulation (ratio of the level of intensity of expression in log2 in two stages of differentiation) measured by high-throughput sequencing, FC − D7 / Modulation (ratio of the level of intensity of expression in log2 in two stages of differentiation) measured by high-throughput sequencing, WD − D0 / Modulation (ratio of the level of intensity of expression in log2 in two stages of differentiation) measured by high-throughput sequencing, WD − FC / Level of intensity of expression in log2 measured by high-throughput sequencing, D0 / Level of intensity of expression in log2 measured by high-throughput sequencing, D7 / Level of intensity of expression in log2 measured by high-throughput sequencing, FC / Level of intensity of expression in log2 measured by high-throughput sequencing, WD: Table VI; for Level of intensity of expression in log2 At the differentiated stage (WD) measured in HTS: healthy human airway epithelial tissue; for Level of intensity of expression in log2 measured by high-throughput sequencing, D0: stage D0; for Level of intensity of expression in log2 measured by high-throughput sequencing, D7: stage D7; for Level of intensity of expression in log2 measured by high-throughput sequencing, FC: stage FC; for Level of intensity of expression in log2 At the differentiated stage (WD) measured in HTS / Level of intensity of expression in log2 measured by high-throughput sequencing, WD: stage WD
How it was run: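 Total RNA including small RNAs was taken from air-liquid interface cultures at ALI-D0, ALI-D7, ALI-FC (first cilia, ~14 days) and ALI-WD (~21 days). SOLiD small-RNA libraries were sequenced, and 5p/3p reads were normalized to 10^6 sequences and expressed as percentage abundance.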

[3] = test system: human airway epithelial cells (HAECs); experiment: Agilent miRNA chips, miRNA expression at four stages of differentiation of HAECs; details: for Modulation (ratio of the level of intensity of expression in log2 in two stages of differentiation) measured with the Agilent chips, D7 − D0 / Modulation (ratio of the level of intensity of expression in log2 in two stages of differentiation) measured with the Agilent chips, FC − D7 / Modulation (ratio of the level of intensity of expression in log2 in two stages of differentiation) measured with the Agilent chips, WD − D0 / Modulation (ratio of the level of intensity of expression in log2 in two stages of differentiation) measured with the Agilent chips, WD − FC / Level of intensity of expression in log2 measured with the Agilent chips, D0 / Level of intensity of expression in log2 measured with the Agilent chips, D7 / Level of intensity of expression in log2 measured with the Agilent chips, FC / Level of intensity of expression in log2 measured with the Agilent chips, WD: Table VI; for Modulation (ratio of the level of intensity of expression in log2 at two stages of differentiation), FC − D7 / Modulation (ratio of the level of intensity of expression in log2 at two stages of differentiation), WD − FC: Agilent miRNA chips, Table V; for Level of intensity of expression in log2 measured with the Agilent chips, D0: stage D0; for Level of intensity of expression in log2 measured with the Agilent chips, D7: stage D7; for Level of intensity of expression in log2 measured with the Agilent chips, FC: stage FC; for Level of intensity of expression in log2 measured with the Agilent chips, WD: stage WD
How it was run: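 Arrays probing 866 human and 89 human viral miRNAs were used in parallel with sequencing. The same patients' RNA was labelled and hybridized following the manufacturer's protocol.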

Substance | Modulation of expression of the miRNAs in pyramidal cells (323(−)) relative to basal cells 323(+) [1] | Intensity of the level of expression in log2 in basal cells (323(+)) [1] [log2] | Intensity of the level of expression in log2 in pyramidal cells (323(−)) [1] [log2] | Modulation (ratio of the level of intensity of expression in log2 in two stages of differentiation) measured by high-throughput sequencing, D7 − D0 [2] [log2] | Modulation (ratio of the level of intensity of expression in log2 in two stages of differentiation) measured by high-throughput sequencing, FC − D7 [2] [log2] | Modulation (ratio of the level of intensity of expression in log2 in two stages of differentiation) measured by high-throughput sequencing, WD − D0 [2] [log2] | Modulation (ratio of the level of intensity of expression in log2 in two stages of differentiation) measured by high-throughput sequencing, WD − FC [2] [log2] | Level of intensity of expression in log2 At the differentiated stage (WD) measured in HTS [2] [log2] | Level of intensity of expression in log2 measured by high-throughput sequencing, D0 [2] [log2] | Level of intensity of expression in log2 measured by high-throughput sequencing, D7 [2] [log2] | Level of intensity of expression in log2 measured by high-throughput sequencing, FC [2] [log2] | Level of intensity of expression in log2 measured by high-throughput sequencing, WD [2] [log2] | Modulation (ratio of the level of intensity of expression in log2 in two stages of differentiation) measured with the Agilent chips, D7 − D0 [3] [log2] | Modulation (ratio of the level of intensity of expression in log2 at two stages of differentiation), FC − D7 [3] [log2] | Modulation (ratio of the level of intensity of expression in log2 in two stages of differentiation) measured with the Agilent chips, FC − D7 [3] [log2] | Modulation (ratio of the level of intensity of expression in log2 in two stages of differentiation) measured with the Agilent chips, WD − D0 [3] [log2] | Modulation (ratio of the level of intensity of expression in log2 at two stages of differentiation), WD − FC [3] [log2] | Modulation (ratio of the level of intensity of expression in log2 in two stages of differentiation) measured with the Agilent chips, WD − FC [3] [log2] | Level of intensity of expression in log2 measured with the Agilent chips, D0 [3] [log2] | Level of intensity of expression in log2 measured with the Agilent chips, D7 [3] [log2] | also measured
hsa-miR-939: human miRNA, SEQ ID No. 50 (UGGGGAGCUGAGGCUCUGGGGGUG; expressed or natural sequence; listed as Homo sapiens) | 1.28 | 4.81 | 6.08 | 0.13 | −0.13 | 0.00 | 0.00 | 5.43 | 0.01 | 0.15 | 0.01 | 0.01 | 1.40 | −0.63 | −0.63 | 0.70 | −0.07 | −0.07 | 6.64 | 8.04 | Level of intensity of expression in log2 measured with the Agilent chips, FC [3]: 7.41 log2; Level of intensity of expression in log2 measured with the Agilent chips, WD [3]: 7.34 log2
hsa-miR-425: human miRNA, SEQ ID No. 44 (AAUGACACGAUCACUCCCGUUGA; expressed or natural sequence; listed as Homo sapiens) | 0.70 | 4.52 | 5.22 | 0.42 | 0.74 | 1.12 | −0.04 | 9.53 | 10.58 | 11.01 | 11.75 | 11.70 | 1.59 | 0.19 | 0.19 | 1.57 | −0.21 | −0.21 | 6.61 | 8.21 | Level of intensity of expression in log2 measured with the Agilent chips, FC [3]: 8.39 log2; Level of intensity of expression in log2 measured with the Agilent chips, WD [3]: 8.18 log2
hsa-miR-365: human miRNA, SEQ ID No. 41 (UAAUGCCCCUAAAAAUCCUUAU; expressed or natural sequence; listed as Homo sapiens) | −0.99 | 4.83 | 3.84 | −0.39 | 0.00 | −0.39 | 0.00 | 2.78 | 0.41 | 0.01 | 0.01 | 0.01 | −0.02 | −1.21 | −1.21 | −1.18 | 0.05 | 0.05 | 8.44 | 8.41 | Level of intensity of expression in log2 measured with the Agilent chips, FC [3]: 7.21 log2; Level of intensity of expression in log2 measured with the Agilent chips, WD [3]: 7.25 log2
hsa-miR-130a: human miRNA, SEQ ID No. 4 (CAGUGCAAUGUUAAAAGGGCAU; expressed or natural sequence; listed as Homo sapiens) | −6.33 | 9.76 | 3.43 | −1.40 | 0.19 | −1.94 | −0.73 | 11.98 | 13.91 | 12.51 | 12.71 | 11.98 | 0.65 | −1.53 | −1.53 | −1.31 | −0.43 | −0.43 | 8.83 | 9.48 | cell type in which the miRNA is specifically expressed ([1]; sorted ciliated/pyramidal versus basal cells): more specific to the basal cells; Modulation (ratio of the level of intensity of expression in log2 in two stages of differentiation), D7 − D0 ([2]; HTS): −1.40 log2; Modulation (ratio of the level of intensity of expression in log2 in two stages of differentiation), FC − D7 ([2]; HTS): 0.19 log2; Modulation (ratio of the level of intensity of expression in log2 in two stages of differentiation), WD − FC ([2]; HTS): −0.73 log2; Abundance (%), D0 ([2]; HTS, ALI-D0): 3.38%; Abundance (%), D7 ([2]; HTS, ALI-D7): 1.28%; Abundance (%), FC ([2]; HTS, ALI-FC): 1.42%; Abundance (%), WD ([2]; HTS, ALI-WD): 0.65%; Level of intensity of expression in log2 measured with the Agilent chips, FC [3]: 7.95 log2; Level of intensity of expression in log2 measured with the Agilent chips, WD [3]: 7.52 log2
